Measured values published in PMC5905120, “An innovative immunotherapeutic strategy for ovarian cancer: CLEC10A and glycomimetic peptides” (Journal for Immunotherapy of Cancer, 2018).
Bridges are numbered along the chain shown (N, C = ends). Roman numbers before positions name the chains, in order. Where no end group is shown, it is not given here.

Legend:
human CLEC10A = target: T1, human CLEC10A (Homo sapiens, UniProt Q8IUN9); assay: Solid-phase binding to recombinant human CLEC10A; details: Fig. 2a, representative of 3 independent experiments
T1 construct: purchased R&D Systems
T1 sequence (Q8IUN9 61-316 limits assumed): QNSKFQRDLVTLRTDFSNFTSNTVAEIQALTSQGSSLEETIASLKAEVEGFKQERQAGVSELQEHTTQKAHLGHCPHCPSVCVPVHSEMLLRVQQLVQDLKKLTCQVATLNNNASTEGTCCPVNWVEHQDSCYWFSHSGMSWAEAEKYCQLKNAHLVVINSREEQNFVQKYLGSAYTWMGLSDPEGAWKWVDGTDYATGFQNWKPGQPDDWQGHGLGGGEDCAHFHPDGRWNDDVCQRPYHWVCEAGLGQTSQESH
Procedure: Solid-phase binding assays were performed with streptavidin-, protein A/G-, or Nickel-coated microtiter plates (Pierce). His-tagged or Fc-fusion recombinant receptors (R&D Systems, Minneapolis, MN) were reconstituted in PBS. Sufficient receptors were added to wells to saturate the coating. His-tagged receptors were added to each well at a 5-fold excess over the stated capacity of the Ni coating to minimize non-specific binding of the peptide. Wells were washed three times with binding buffer (25 mM Tris HCl, pH 7.4, 150 mM NaCl, 0.05% Tween-20) to remove unbound receptor and 50 μL of 2 μM biotinylated peptide in binding buffer were added and allowed to incubate for 1 h. The wells were washed four times with binding buffer and then incubated with 50 μL of 1 μg/mL streptavidin conjugated with peroxidase (Sigma-Aldrich) for 1 h. The wells were washed five times with binding buffer and 50 μL of peroxidase substrate (1-Step™ Ultra TMB, Pierce) were added. After several minutes to allow color development, the reaction was stopped with 50 μL 1 M H3PO4 and absorbance was measured at 450 nm. Bound streptavidin was quantitated by the specific activity of peroxidase (absorbance/ng protein conjugate/min) under the conditions of the assay.
Solid-phase binding assays were performed with recombinant human receptors. Three variations of the binding assay were used in this study, all of which allowed the arms of the tetravalent peptide to have full flexibility. (i) Biotinylated peptide was bound in microtiter wells coated with streptavidin and incubated with recombinant human receptors. After extensive washing, the bound receptor was measured by peroxidase conjugated to a receptor-specific antibody. (ii) The extracellular domains of receptors, which were fused with the Fc domain of immunoglobulin IgG, were bound in wells coated with protein A/G. Biotinylated peptide was incubated with the receptors and, after extensive washing, bound peptide was measured with streptavidin conjugated with peroxidase. Or (iii), recombinant receptors with a poly-His tag were bound to Nickel-coated wells and incubated with biotinylated peptide. svL4 and sv6D contain His residues (see Table 1) and can bind to the Ni coating, which was minimized by adding sufficient poly-His-tagged receptor to saturate the Ni coating.

[1] = test system: peritoneal low FSc and low SSc cells; assay: Peritoneal small-cell population in 4T1 tumor-bearing Balb/c mice; format: in vivo, mouse (Balb/c); details: 1 nmole/g
Procedure: After tumors had reached a volume of at least 500 mm^3, the peritoneal population of low FSc and low SSc cells was minimal (Fig. S2a). […] We conclude that this population is possibly progenitor cells and that additional treatments would lead to maturation of this population, as observed with healthy animals.
Fig. S2. Increase in the population of small cells in the peritoneal cavity of Balb/c mice bearing tumors of breast 4T1 cancer cell line. svL4 (1 nmole/g) was injected on day 0 and day 2, with analysis 24 h after each injection. a) Pseudocolor scatter plots of peritoneal cells from untreated or treated mice on day 3, 24 h after the second injection. […] Untreated animals, blue; treated animals, orange. Peritoneal cells from 3 animals were pooled and analyzed in triplicate. c) Histograms of normalized SSc vs. FSc for samples of peritoneal cells from Balb/c mice on day 3, from Fig. S2b, i.e., 24 h after the second injection of svL4. Blue trace, untreated animals; red trace, svL4-treated animals.

[2] = test system: peritoneal cells of C57BL/6 mice; assay: Peritoneal immune cell populations by flow cytometry, C57BL/6 mice; format: in vivo, mouse (C57BL/6)
Procedure: Healthy C57BL/6 male mice, 10 weeks old, were injected subcutaneously with peptides on alternate days. Peritoneal cells were isolated from mice 24 h after dosing by injecting ice cold PBS (containing 3% FBS) into the peritoneal cavity, gently massaging the abdomen, and then collecting the fluid, which was transferred into K2EDTA-treated tubes for evaluation of specific biomarkers. Cells from three mice in each group were pooled, counted and divided among FACS tubes (1 × 10^6 cells per tube). Cells were washed once in PBS containing 3% FBS, then stained with 0.25 to 1 μg of fluorescently conjugated antibody per 10^6 cells in 100 μL of buffer as recommended by the manufacturer (Table 2).
Cells were incubated with the antibodies for 30 min at 4 °C in the dark. Following staining, the cells were washed two times with PBS/3% FBS and immediately analyzed with a MACSQuant flow cytometer (Miltenyi Biotech, Inc., San Diego, CA). Compensation was performed using single stain tubes for each color present in the analysis as well as an unstained control sample. Collection of flow cytometric data and analysis with FlowJo software, version 10.0.6 (FlowJo, LLC, Ashland, OR) were performed by Biomodels LLC (Watertown, MA).
To examine whether increases occurred in mature immune cells, peritoneal cells from Balb/c and C57BL/6 mice were analyzed by flow cytometry after cells were stained with the markers listed in Table 2. […] To explore this observation more extensively, svL4 or sv6D was injected into C57BL/6 mice on day 0, 2 or 4. Peritoneal cells were examined by flow cytometry 24 h after each injection. Shown in Fig. 5 are results expressed as cell counts for F4/80 CD11b CD86 (mature, active macrophages); CD11c (DCs); CD11c CD 86 (activated DCs); CD4 CD69 (activated T cells); CD8 CD69 (activated cytotoxic T cells); NK1.1 CD3^+ CD69 (activated NKT cells); NK1.1 CD3^− CD69 (activated NK cells); CD19 (B cells); and CD19 CD73 CD80 CD273 (memory B cells). The numbers of these mature, activated cells continued to increase with each injection.
Fig. 5 Expansion of peritoneal cells in C57BL/6 mice. Mice were injected subcutaneously at a dose of 1 nmole/g body weight of svL4, sv6D or svC1. Cells in each population recovered in a peritoneal lavage are expressed as cell counts (in thousands). Cells from three mice in each treatment group were pooled for analysis. The number of cells in each population was normalized to the average recovery of total cells from all groups. For each cell type, the left-hand, middle and right-hand set of bars represent samples from mice treated with svL4, sv6D or svC1, respectively. Mice were injected on days 0, 2 and 4, and cells were collected 24 h after each injection. Day 1, open bar; day 3, grey bar; day 5, black bar. Populations that express activation markers are indicated by an asterisk

## I: VQATQSNQHTPRGGGSKK-NH2 / II: VQATQSNQHTPRGGGSK / III: VQATQSNQHTPRGGGS / IV: VQATQSNQHTPRGGGS (amide I:17-IV:C, I:18-II:C, II:17-III:C) [svL4]
Human CLEC10A
  binding to CLEC10A: bound to CLEC10A
[1]; 24 h after first injection
  size of small-cell population: not changed significantly
[1]; after second injection
  CD3^+ fraction of small cells: 0.5%
  CD19^+ fraction of small cells: about 3%
[1]; within 24 h after second injection
  size of small-cell population: dramatic increase
[2]; 0.05 nmole/g svL4
  decrease of CD90.2^+ cells as small-cell population increased: more than 50%
[2]; 1 nmole/g s.c. on days 0, 2, 4, Fig. 5
  response of CD19^+ B cells vs. sv6D: responded more strongly to svL4
[2]; 1 nmole/g s.c., single vs. second injection, 24 h
  increase in mature immune cells: a significant increase occurred only after the second injection
[2]; 0.1 or 0.5 nmole/g svL4
  Lin/CD90.2 status of small cells: nearly all cells were Lin^Neg and CD90.2^Neg
[2]; within 24 h after an injection (data not shown)
  increase in mature immune cells: Essentially no increase
[2]; within 24 h after injection, healthy C57BL/6, Fig. S1a
  small cells (low FSc, low SSc): several-fold increase
